Results reported in US8399493B2, “Pyridinone derivatives and their use as positive allosteric modulators of mGluR2-receptors” (Janssen Pharmaceuticals, Inc., priority 2004, dated 2013).

Assays:
[1] = target: T1, native rat mGluR2 (Rattus norvegicus, UniProt P31421); assay: [35S]GTPγS binding assay using cortical rat brain membranes; type: biochemical; conditions: selective mGluR2 agonist such as LY379268; rat cortical membranes; 3 or 10 μM of positive allosteric modulator
T1 construct: from tissue; host or cells: rat brain cortex membranes (Sprague-Dawley rats, Charles River Laboratories)
T1 sequence (P31421 19-872): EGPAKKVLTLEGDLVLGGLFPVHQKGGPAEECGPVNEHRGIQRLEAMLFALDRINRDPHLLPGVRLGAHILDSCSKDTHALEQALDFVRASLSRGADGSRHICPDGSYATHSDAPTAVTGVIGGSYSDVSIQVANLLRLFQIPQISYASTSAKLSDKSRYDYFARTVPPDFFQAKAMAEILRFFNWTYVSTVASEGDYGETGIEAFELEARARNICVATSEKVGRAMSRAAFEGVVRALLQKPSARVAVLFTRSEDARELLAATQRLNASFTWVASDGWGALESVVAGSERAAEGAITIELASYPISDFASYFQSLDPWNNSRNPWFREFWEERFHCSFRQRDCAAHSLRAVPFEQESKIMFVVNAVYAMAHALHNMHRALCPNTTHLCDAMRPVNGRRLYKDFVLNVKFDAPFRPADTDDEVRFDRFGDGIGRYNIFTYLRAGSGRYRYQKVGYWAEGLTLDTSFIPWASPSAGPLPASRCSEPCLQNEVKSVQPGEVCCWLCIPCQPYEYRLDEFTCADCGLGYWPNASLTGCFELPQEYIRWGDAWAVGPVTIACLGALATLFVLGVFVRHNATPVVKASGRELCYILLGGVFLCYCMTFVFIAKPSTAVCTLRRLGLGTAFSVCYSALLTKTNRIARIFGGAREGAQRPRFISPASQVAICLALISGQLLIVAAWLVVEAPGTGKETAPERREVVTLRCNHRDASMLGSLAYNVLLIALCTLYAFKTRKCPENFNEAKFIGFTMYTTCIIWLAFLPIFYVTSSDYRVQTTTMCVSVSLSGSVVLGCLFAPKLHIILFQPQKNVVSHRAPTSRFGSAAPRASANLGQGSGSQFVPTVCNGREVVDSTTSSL
From the text: The [^35S]GTPγS binding is a functional membrane-based assay used to study G-protein coupled receptor (GPCR) function. This method is using a binding assay to assess the initial step in receptor-mediated G protein activation in membranes prepared from cells expressing recombinant GPCR or using membranes from discrete area of the rat brain. In brief, the assay is measuring the activation of G proteins by catalyzing the exchange of guanosine 5′-diphosphate (GDP) by guanosine 5′-triphosphate (GTP) at the α subunit. The GTP-bounded G proteins dissociate into two subunits, Gα-GTP and Gβγ, which in turn regulate intracellular enzymes and ion channels. GTP is rapidly hydrolysed by the Gα-subunit (GTPases) and the G protein is deactivated and ready for new GTP exchange cycle (Harper (1998) Curr Protoc Pharmacol 2.6.1-10, John Wiley & Sons, Inc.). [^35S]GTPγS, a non-hydrolyzed analogue of GTP, is used for this purpose.
This method is widely used to study receptor activation of G protein in membranes prepared from rat brain tissue, including mGluR2 receptors (Schaffhauser et al 2003, Pinkerton et al, 2004). mGluR2 receptors are expressed in the rat brain cortex (Mutel et al (1998) J. Neurochem. 71:2558-64; Schaffhauser et al (1998) Mol. Pharmacol. 53:228-33) and are coupled to Gαi-protein, a preferential coupling for this method.
[^35S]GTPγS binding assay using cortical rat brain membranes preparation was used and adapted from Schaffhauser et al ((2003) Mol. Pharmacol. 4:798-810) for the detection of the positive allosteric modulator properties of the compounds of this invention on native rat mGluR2. In order to eliminate the possible interference with group III Gαi-protein coupled mGluRs (mGluR4, mGluR7, mGluR8; mGluR6 is not expressed in the cortex (Laurie et al (1997) Neuropharmacol. 36:145-52)), the potentiation of the response to a selective mGluR2 agonist, such as DCG-IV (Cartmell et al. (1998) Br. J. Pharmacol. 123(3):497-504) or LY379268 (Monn et al. (1999) J. Med. Chem 42:1027-40), by compounds described in the present invention was performed.
Cortices were dissected out from brains of 200-300 g Sprague-Dawley rats (Charles River Laboratories, L'Arbresle, France). Tissues were homogenized in 6 volumes (vol/wt) of 10% sucrose at 4° C. using a glass-teflon homogenizer. The homogenate was centrifuged at 1250 g for 10 min, and the supernatant was centrifuged at 40,000 g for 20 min (4° C.). The pellet was resuspended in 25 ml water using a Polytron disrupter (Kinematica AG, Luzern, Switzerland) and centrifuged for 10 min at 3000 g. (4° C.). The supernatant was centrifuged at 40,000 g for 20 min (4° C.). The supernatant was discarded and the pellet washed twice by resuspension in 10 volumes 5 mM HEPES-KOH, pH 7.4. The homogenate was frozen and thawed twice and centrifuged at 40,000 g for 20 min. The final pellet was resuspended in 5 mM HEPES-KOH, pH 7.4 and stored at −80° C. before its use. Protein concentration was determined by the Bradford method (Bio-Rad protein assay, Reinach, Switzerland) with bovine serum albumin as standard.
Measurement of mGluR2 positive allosteric modulators properties in rat cortical membranes was performed as follows: rat cortical membrane (1.5 μg) were incubated in 96-well microplates for 15 min at 30° C. in assay buffer (50 mM HEPES pH 7.4, 100 mM NaCl, 5 mM MgCl2, 10 μM GDP, 10 μg/ml saponin, EGTA 0.2 mM) with increasing concentrations of positive allosteric modulator (from 1 nM to 10 μM) and a minimal concentration of DCG-IV or LY379268, a selective mGluR2 agonist, that has been determined in previous experiments and that corresponds to the EC20, a concentration that gives 20% of the maximal response of the agonist, and is in accordance to published data (Pin et al. (1999) Eur. J. Pharmacol. 375:277-294). […]

Row | melting point [°C] | SMILES | Activity: left-ward shift of agonist mGluR2 concentration-response curve [1]
1 | 185 | O=C(O)CCc1ccc(-c2ccc(=O)n(Cc3ccc(Cl)cc3)c2)cc1 [2-32] | ++ (left-ward shift of agonist mGluR2 concentration-response curve [2- to 3.5-fold])
2 | 169 | CS(=O)(=O)Nc1cccc(-c2ccc(=O)n(Cc3ccc(Cl)cc3)c2)c1 [2-55] | ++ (left-ward shift of agonist mGluR2 concentration-response curve [2- to 3.5-fold])
3 | 135 | Cc1ccc(-c2ccc(=O)n(Cc3ccc(Cl)cc3)c2)nc1 [2-61] | ++ (left-ward shift of agonist mGluR2 concentration-response curve [2- to 3.5-fold])
4 | 142 | COc1ccc(-c2ccc(=O)n(Cc3ccc(Cl)cc3)c2)cc1 [4-20] | +++ (left-ward shift of agonist mGluR2 concentration-response curve [>3.5])
5 | 168 | COc1ccc(-c2ccc(=O)n(Cc3ccc(C(F)(F)F)nc3)c2)cc1.Cl [4-47, 5-(4-Methoxyphenyl)-1-((6-(trifluoromethyl)pyridin-3-yl)methyl)-pyridin-2(1H)-one hydrochloride] | +++ (left-ward shift of agonist mGluR2 concentration-response curve [>3.5])
6 | 120 | COc1ccc(-c2ccc(=O)n(Cc3ccc(F)c(F)c3)c2)cn1 [6-16] | ++ (left-ward shift of agonist mGluR2 concentration-response curve [2- to 3.5-fold])
7 | 197 | O=c1ccc(-c2ccc(OCc3nn[nH]n3)cc2)cn1Cc1ccc(Cl)cc1F [6-65, 5-(4-((2H-Tetrazol-5-yl)methoxy)phenyl)-1-(4-chloro-2-fluorobenzyl)pyridin-2(1H)-one] | +++ (left-ward shift of agonist mGluR2 concentration-response curve [>3.5])
8 | 165 | CS(=O)(=O)NCc1ccc(-c2ccc(=O)n(Cc3ccc(Cl)cc3F)c2)cc1 [6-73] | ++ (left-ward shift of agonist mGluR2 concentration-response curve [2- to 3.5-fold])
9 | 179 | Cl.O=c1ccc(C#Cc2cccnc2)cn1Cc1cccc(F)c1 [7-02, 1-(3-Fluorobenzyl)-5-(2-(pyridin-3-yl)ethynyl)pyridin-2(1H)-one hydrochloride] | + (left-ward shift of agonist mGluR2 concentration-response curve [<2])
10 | 123 | CC(C)CCn1ccc(-c2cccs2)c(C#N)c1=O [10-28, 1,2-Dihydro-1-isopentyl-2-oxo-4-(thiophen-2-yl)pyridine-3-carbonitrile] | +++ (left-ward shift of agonist mGluR2 concentration-response curve [>3.5])
11 | 114 | COc1ccc(-c2ccn(Cc3cccc(F)c3)c(=O)c2)cc1 [11-03, 1-(3-Fluorobenzyl)-4-(4-methoxyphenyl)pyridin-2(1H)-one] | + (left-ward shift of agonist mGluR2 concentration-response curve [<2])
12 | 133 | COc1ccc(-c2cn(Cc3ccc(Cl)cc3)c(=O)cn2)cc1 [12-06, 1-(4-Chlorobenzyl)-5-(4-methoxyphenyl)pyrazin-2(1H)-one] | + (left-ward shift of agonist mGluR2 concentration-response curve [<2])
13 | 107 | O=c1c2ccccc2ccn1Cc1ccc(F)cc1 [13-01, 2-(4-Fluorobenzyl)isoquinolin-1(2H)-one] | ++ (left-ward shift of agonist mGluR2 concentration-response curve [2- to 3.5-fold])
14 | 170 to 171 | CCCn1ccc2c(NCCc3ccc(O)cc3)cccc2c1=O [13-05, 5-(4-Hydroxyphenethylamino)-2-propylisoquinolin-1(2H)-one] | +++ (left-ward shift of agonist mGluR2 concentration-response curve [>3.5])
15 | 139 | O=c1ccc2ccccc2n1Cc1ccc(Cl)cc1 [15-04, 1-(4-Chlorobenzyl)quinolin-2(1H)-one] | + (left-ward shift of agonist mGluR2 concentration-response curve [<2])
16 | 119 to 121 | O=c1ccc(COc2ccccc2)cn1Cc1ccc(C(F)(F)F)nc1 [16-07] | ++ (left-ward shift of agonist mGluR2 concentration-response curve [2- to 3.5-fold])
